Common to all, as to type: cell-based, Plasmodium falciparum
For experiment [1], the system named is P. falciparum Dd2 Cytb G131S. Description: SYBR Green ABS proliferation assay, NCGC00374598 selected clone C11. The conditions noted are these: Plasmodium falciparum, DD2, cytochrome b mutant line, second value triple, c6; […]; read-out: log AC50, mean (converted). The method, boiled down:
(§1)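 Proliferation of cytb-mutant Dd2 clones was measured by SYBR Green-I fluorescence at 72 h, normalized to controls.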

Experiment [2] has as its system P. falciparum Dd2 Cytb V259L. Description: SYBR Green ABS proliferation assay, NCGC00473217 selected clone F06. The settings on record: Plasmodium falciparum, DD2, cytochrome b mutant line, third value triple, c9; […]; read-out: log AC50, mean (converted). The procedure, abridged:
as §1

Experiment [3] concerns P. falciparum Dd2 Cytb A122D. Put plainly: SYBR Green ABS proliferation assay, NCGC00473217 selected clone F12. The settings on record: Plasmodium falciparum, DD2, cytochrome b mutant line, fourth value triple, c12; […]; read-out: log AC50, mean (converted). The procedure, abridged:
as §1

The test system of experiment [4] is P. falciparum Dd2 Cytb F123L. Description: SYBR Green ABS proliferation assay, NCGC00473217 selected clone G08. The conditions noted are these: Plasmodium falciparum, DD2, cytochrome b mutant line, fifth value triple, c15; […]; read-out: log AC50, mean (converted). Here is the method: As resistance selection studies implicated the parasite cytochrome bc1 complex in mediating reduced parasite susceptibility to both NCGC00473217 and NCGC00374598, we leveraged these drug-selected parasites to test for altered drug response to a panel of antimalarial compounds.
The P. falciparum parasite Dd2 line was cultured in vitro using standard conditions. […] Tissue culture flasks and assay plates were incubated at 37 °C under a gas mixture of 5% CO2, 5% O2 and 90% N2. […] Significant differences were assessed using two-sided Student’s t-tests. All HTS assays were stopped and read at 72 h. Percent response values represent relative growth as judged by SYBR Green-I fluorescence intensity values normalized to controls.
Fresh uninfected RBCs (0.5% hematocrit) were added on day 7 and media was changed every other day. […] Resistant parasites were maintained under drug media at a volume of 50 mL until a high parasitemia (> 5%) was achieved. Aliquots of the bulk resistant cultures were frozen in cryovials before cloning by limiting dilution in 96-well plates (seeded at 0.25 or 0.5 parasites/well)[70]. After 3 weeks of cloning, we screened for positive wells by flow cytometry with SYBR Green-stained cells. […] Parasites were harvested by saponin lysis at the trophozoite stage and genomic DNA was extracted using the QIAamp DNA Blood Midi Kit (Qiagen, Germantown, MD)[71].

This is an account of results in paper PMC7822874, “Chemoprotective antimalarials identified through quantitative high-throughput screening of Plasmodium blood and liver stage parasites” (Scientific Reports, 2021).

By AC50 is commonly meant the concentration at which the activity in the assay is half-maximal. For `CCCN1C(CC(C)C)=N[S+](=O)([O-])c2cc(NC(=O)c3ccccc3OC)ccc21` [NCGC00531762-01], the concentration at half-maximal activity (AC50) in experiment [1] was 1 µM; in experiment [2], 2 µM; in experiment [3], 1.12 µM; in experiment [4], 2.52 µM.
Taken in the same sequence, the figures for `CCCN1C(CC(C)C)=N[S+](=O)([O-])c2cc(NC(=O)c3c(Cl)cccc3Cl)ccc21` [NCGC00531779-01] were 1.85 µM, 11.9 µM, 15.9 µM and 15.3 µM.
With `CCc1nc2c(c(-c3ccc(Cl)cc3)n1)CCN(Cc1ccc(NC(C)=O)cc1)CC2` [NCGC00476919-01], the AC50 in experiment [1] is 12.8 µM; in experiment [2], 15 µM; in experiment [3] it was 11.4 µM; in experiment [4], 2.03 µM.
Taken in the same sequence, the figures for `CCCN1C(CC(C)C)=N[S+](=O)([O-])c2cc(NCc3ccc(F)cc3)ccc21` [NCGC00531784-01] were 4.15 µM, 11.9 µM, 14.2 µM and 12.6 µM.
Taken in the same sequence, the figures for `CCCN1C(CC2CCOCC2)=N[S+](=O)([O-])c2cc(NC(=O)c3cccs3)ccc21` [NCGC00537663-01] were 3.7 µM, 4.66 µM, 2.82 µM and 3.56 µM.
Taken in the same sequence, the figures for `CCCN1C(CC(C)C)=N[S+](=O)([O-])c2cc(NCc3ccccc3)ccc21` [NCGC00531800-01] were 10 µM, 11.2 µM, 9.46 µM and 14.2 µM.
For the compound `CCCN1C(CC(C)C)=N[S+](=O)([O-])c2cc(NC(=O)c3ccc4c(c3)OCCO4)ccc21` [NCGC00531778-01], the half-maximal activity concentration (AC50) is 0.224 µM in experiment [1], 5.22 µM in experiment [2], 13.1 µM in experiment [3] and 13.1 µM in experiment [4].
`CCCN1C(CC(C)C)=N[S+](=O)([O-])c2cc(NC(=O)Cc3cccs3)ccc21` [NCGC00531815-01]: the AC50 in experiment [1] is 10 µM; in experiment [2], 7.67 µM; in experiment [3], 5.22 µM; in experiment [4], 5.64 µM.
Taken in the same sequence, the figures for `CCCN1C(CC2CCC2)=N[S+](=O)([O-])c2cc(NC(=O)c3cccs3)ccc21` [NCGC00537664-01] were 0.466 µM, 1.19 µM, 1.36 µM and 1.78 µM.
Taken in the same sequence, the figures for `CCCN1C(CC2CCOCC2)=N[S+](=O)([O-])c2cc(NC(=O)c3ccc(F)cc3)ccc21` [NCGC00537661-01] were 0.2 µM, 5.02 µM, 5.86 µM and 4.84 µM.
Taken in the same sequence, the figures for `COc1ccc(-c2nc(C3CC3)nc3c2CCN(C(=O)c2ccc(C(F)(F)F)cc2)CC3)cc1` [NCGC00374638-01] were 11.9 µM, 13.8 µM, 12.8 µM and 10.6 µM.
Turning to `CCCN1C(COC)=N[S+](=O)([O-])c2cc(NC(=O)c3cccs3)ccc21` [NCGC00532347-01], the half-maximal activity concentration (AC50) in experiment [1] is 1.78 µM; in experiment [2] it was 8.93 µM; in experiment [3] it was 8.93 µM; in experiment [4], 0.00796 µM.
With `O=c1[nH]c(N2CCOCC2)nc2c1CCN(Cc1ccc(C(F)(F)F)cc1)CC2` [NCGC00440629-01], the AC50 in experiment [1] was 6.43 µM; in experiment [2], 15 µM; in experiment [3] it was 9.08 µM; in experiment [4], 1.88 µM.
On to `CCCN1C(CC(C)C)=N[S+](=O)([O-])c2cc(NC(=O)c3cccc(C(F)(F)F)c3)ccc21` [NCGC00531777-01], for which the concentration at half-maximal activity (AC50) in experiment [1] was 0.71 µM; in experiment [2], 1.36 µM; in experiment [3] it was 7.52 µM; in experiment [4], 0.00224 µM.
Taken in the same sequence, the figures for `COc1ccc(-c2nc(C(C)C)nc3c2CCN(S(=O)(=O)c2cccc(C(F)(F)F)c2)CC3)cc1` [NCGC00479522-01] were 11 µM, 12.8 µM, 16.8 µM and 11.4 µM.
